Measurements: ChEMBL document CHEMBL3407472, “Multi-parameter optimization of aza-follow-ups to BI 207524, a thumb pocket 1 HCV NS5B polymerase inhibitor. Part 2: Impact of lipophilicity on promiscuity and in vivo toxicity” (Bioorg Med Chem Lett, 2015)

Experiments:
[1] = Permeability from apical to basolateral side of human Caco2 cells; format: ADME, cell-based; conditions: Caco-2, read-out: permeability
[2] = Lipophilicity, log D of the compound at pH 7.4; format: physicochemical; conditions: buffer
[3] = Half life in human liver microsomes at 2 uM; format: ADME
Hepatitis C virus [4] = assay: Antiviral activity against Hepatitis C virus genotype 1b infected in human Huh cells assessed as inhibition of viral replication by RT-PCR-based replicon assay; format: functional, cell-based, Hepacivirus hominis
[5] = Half life in rat liver microsomes at 2 uM; format: ADME
[6] = Cmax in rat at 2 mg/kg, po each in 0.5% Methylcellulose and 0.3% Tween-80 and 1% N-methylpyrrolidone; format: ADME, organism-based; design: dose 2 mg/kg, route oral; conditions: in vivo
[7] = Lipophilicity, log D of the compound; format: physicochemical; conditions: octanol/water
[8] = Plasma concentration in rat at 2 mg/kg, po each in 0.5% Methylcellulose and 0.3% Tween-80 and 1% N-methylpyrrolidone after 2 hrs; format: ADME, organism-based; design: dose 2 mg/kg, route oral
Hepatitis C virus [9] = assay: Antiviral activity against Hepatitis C virus genotype 1a infected in human Huh cells assessed as inhibition of viral replication by RT-PCR-based replicon assay; format: functional, cell-based, Hepacivirus hominis; conditions: subtype 1a
[10] = Plasma concentration in rat at 2 mg/kg, po each in 0.5% Methylcellulose and 0.3% Tween-80 and 1% N-methylpyrrolidone after 1 hr; format: ADME, organism-based; design: dose 2 mg/kg, route oral
[11] = biological target: 5-hydroxytryptamine receptor 2A (Homo sapiens, UniProt P28223); assay: Inhibition of serotonin 5-HT2A receptor (unknown origin)
Chain of 5-hydroxytryptamine receptor 2A (P28223 whole entry): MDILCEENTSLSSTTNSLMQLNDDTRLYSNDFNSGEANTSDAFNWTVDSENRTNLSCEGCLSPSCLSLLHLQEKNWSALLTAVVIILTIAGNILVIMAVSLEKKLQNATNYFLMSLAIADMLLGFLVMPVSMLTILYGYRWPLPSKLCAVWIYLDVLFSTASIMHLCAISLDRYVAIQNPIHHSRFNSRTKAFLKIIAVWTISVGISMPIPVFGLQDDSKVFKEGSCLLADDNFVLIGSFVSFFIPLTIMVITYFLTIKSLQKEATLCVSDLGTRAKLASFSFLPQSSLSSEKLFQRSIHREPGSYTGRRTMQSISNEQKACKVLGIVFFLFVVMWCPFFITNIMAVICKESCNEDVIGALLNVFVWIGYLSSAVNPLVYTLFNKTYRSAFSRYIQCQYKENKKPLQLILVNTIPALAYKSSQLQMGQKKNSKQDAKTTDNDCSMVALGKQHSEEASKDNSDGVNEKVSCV

Row | SMILES | Papp A→B [1] | logD [2] | half-life at 2 µM [3] | EC50 (Hepatitis C virus [4]) | half-life at 2 µM [5] | Cmax [6] | logD [7] | concentration at 2 h [8] | EC50 (Hepatitis C virus [9]) | concentration at 1 h [10] | IC50 [11]
1 | CCOc1nc(NC(=O)C2(NC(=O)c3ccc4c(C5CCCC5)c(-c5ccccn5)n(C)c4c3)CCC2)ccc1/C=C/C(=O)O | 21 ×10⁻⁶ cm/s | 4.4 | 0.667 h | 11 nM | – | – | – | – | – | – | –
2 | CCOc1nc(NC(=O)C(C)(C)NC(=O)c2ccc3c(C4CCCC4)c(-c4ccc(Cl)cn4)n(C)c3c2)cnc1/C=C/C(=O)O | – | 2.6 | 4.6 h | 6 nM | > 5 h | 660 nM | 2.6 | 660 nM | – | – | –
3 | CCOc1nc(NC(=O)C2(NC(=O)c3ccc4c(C5CCCC5)c(-c5cnccn5)n(C)c4c3)CCCC2)cnc1/C=C/C(=O)O | – | 3.2 | 1.33 h | 5 nM | > 5 h | – | 3.2 | 100 nM | 13 nM | 400 nM | –
4 | CCOc1nc(NC(=O)C2(NC(=O)c3ccc4c(C5CCCC5)c(-c5cncnc5)n(C)c4c3)CCC2)ccc1/C=C/C(=O)O | 17 ×10⁻⁶ cm/s | 3.4 | 1.02 h | 15 nM | – | – | – | – | – | – | –
5 | COc1nc(NC(=O)C(C)(C)NC(=O)c2ccc3c(C4CCCC4)c(-c4cncnc4)n(C)c3c2)ccc1/C=C/C(=O)O | – | 2.2 | – | 23 nM | – | – | – | – | 72 nM | – | –
6 | CCOc1nc(NC(=O)C2(NC(=O)c3ccc4c(c3)c(C)c(-c3ccc(F)cn3)n4C3CCCCC3)CCC2)cnc1/C=C/C(=O)O | – | 3.1 | – | 12 nM | – | – | – | – | 63 nM | – | –
7 | COc1nc(NC(=O)C2(NC(=O)c3ccc4c(c3)c(C)c(-c3ccc(F)cn3)n4C3CCCCC3)CCC2)cnc1/C=C/C(=O)O | – | 3.3 | – | 17 nM | – | – | – | – | 310 nM | – | –
8 | CCOc1nc(NC(=O)C(C)(C)NC(=O)c2ccc3c(C4CCCC4)c(-c4ncc(Cl)cn4)n(C)c3c2)ccc1/C=C/C(=O)O | – | 4 | – | 6 nM | – | – | – | – | 7 nM | – | –
9 | CCOc1nc(NC(=O)C(C)(C)NC(=O)c2ccc3c(C4CCCC4)c(-c4ncc(Cl)cn4)n(C)c3c2)cnc1/C=C/C(=O)O | – | 3.3 | 2.3 h | 12 nM | 1.82 h | 900 nM | 3.3 | – | 21 nM | – | 5200 nM
10 | COc1nc(NC(=O)C2(NC(=O)c3ccc4c(C5CCCC5)c(-c5ncc(Cl)cn5)n(C)c4c3)CCC2)ccc1/C=C/C(=O)O | – | 3.7 | – | 9 nM | – | – | – | – | 62 nM | – | –
11 | CCOc1nc(NC(=O)C2(NC(=O)c3ccc4c(C5CCCC5)c(-c5ncc(Cl)cn5)n(C)c4c3)CCCC2)cnc1/C=C/C(=O)O | – | 4.3 | – | 6 nM | – | – | – | – | 27 nM | – | –
12 | COc1nc(NC(=O)C2(NC(=O)c3ccc4c(C5CCCC5)c(-c5ccc(F)cn5)n(C)c4c3)CCC2)ccc1/C=C/C(=O)O | – | 4 | – | 12 nM | – | – | – | – | 68 nM | – | –
